From patent publication US20240109897A1, “MODULATORS OF FPR1 AND METHODS OF USING THE SAME” (BEIJING TIANTAN HOSPITAL, priority 2021, published 2024)

Target: T1, FPR1 (UniProt P21462)
T1 sequence (P21462 1-350): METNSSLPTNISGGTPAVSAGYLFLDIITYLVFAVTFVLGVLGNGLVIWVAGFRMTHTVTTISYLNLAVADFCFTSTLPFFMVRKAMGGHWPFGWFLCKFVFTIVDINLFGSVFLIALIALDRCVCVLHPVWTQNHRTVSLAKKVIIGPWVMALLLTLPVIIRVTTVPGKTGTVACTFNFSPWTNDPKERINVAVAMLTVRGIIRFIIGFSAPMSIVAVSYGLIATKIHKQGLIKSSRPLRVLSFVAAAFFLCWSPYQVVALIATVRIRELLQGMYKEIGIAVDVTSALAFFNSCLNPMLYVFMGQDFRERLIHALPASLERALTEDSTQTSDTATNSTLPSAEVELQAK
Assay: fMLP-FPR1 mediated calcium signaling assay in FPR1-overexpressing 293T cells
Assay type: cell-based, human or mouse
Conditions: inhibition of fMLP-FPR1 mediated intracellular calcium change; hFPR1 or mFPR1 overexpressing 293T cells; 10 min preincubation; INDO-1 AM, FACS
Experimental: The effects of the compounds of this disclosure on regulating the FPR1-mediated cell signaling were measured by monitoring the cellular calcium level change, as illustrated by the exemplary examples in Table 2. The dose response of the illustrated examples are reported categorically using the following ranking criteria: *** (IC50≤100 nM); ** (IC50≥100 to ≤1000 nM); * (IC50≥1000 to ≤10,000 nM); N.D.—not detected.
The coding DNA sequence (CDS) of human FPR1 (NM_001193306) and mouse FPR1 (NM_013521) were cloned and inserted to the lentivirus vector GV367 (Vector information:http://www.genechem.com.cn/index/supports/tool_search.html?keywords=GV367) under the conduction of pCMV promoter. 293T cells were cultured in H-DMEM supplemented with 10% FBS and 1% penicillin-streptomycin (PS) at 37° C. in 5% CO2 Incubator. 293T cells were transfected with lentivirus vector GV367 containing the CDS of human or mouse FPR1 for 24 h and then cultured with complete medium for another 48 h. At 72 h after transfected, cells were passaged, and 5 μg/ml puromycin was added to screen FPR1-transfected 293T cells. The overexpression of human or mouse FPR1 in 293 T cells were detected by immunostaining with anti-mouse or human FPR1 antibodies (Biolegend or Antibody Online).
Cultured hFPR1 or mFPR1 overexpressing 293T cells were labeled with 1 μM INDO-1 AM calcium sensor dye (eBioscience) for 30 min at 37° C. After washed with 1×PBS, cells were resuspended with H-DMEM containing 3% FBS, and were maintained on ice prior to the measurement of intracellular calcium concentration. To measure the inhibitory potency of designed potential FPR1 antagonists, hFPR1 or mFPR1 overexpressing 293T cells were incubated with the compound for 10 min at room temperature. The cytoplasmic calcium levels were then measured by FACS Aria III at 37° C. prior to and after the stimulation of fMLP. We defined the immunofluorescence intensity of indo-1 AM before adding fMLP as the basal value, and the intensity at the peak immunofluorescence reduction after adding fMLP as minimum value for each sample. The change of intracellular calcium was calculated as follow: (basal value−minimum value)/basal value×100%. The IC50 of each compound in inhibiting fMLP-FPR1 mediated intracellular calcium concentration in 293T cells were automatically calculated with Prism 8.0.2 software (GraphPad) after inputting a series of change of intracellular calcium at multiple concentration gradients (from 0 nM to 100 μM).

- IC50: 100 to 1000 nM
SMILES: Cc1ccc(O)c(-c2[nH]nc3c2C(c2ccc(C(F)(F)F)cc2)N(C2CCOCC2)C3=O)c1 (racemic) [Compound 1, Rac-3-(2-hydroxy-5-methylphenyl)-5-(tetrahydro-2H-pyran-4-yl)-4-(4-(trifluoromethyl)phenyl)-4,5-dihydropyrrolo[3,4-c]pyrazol-6(2H)-one]
